According to ChEMBL document CHEMBL5131447, “Discovery of orexin 2 receptor selective and dual orexin receptor agonists based on the tetralin structure: Switching of receptor selectivity by chirality on the tetralin ring” (Bioorg Med Chem Lett, 2022):

How the values were obtained:
[1] = target: T1, Orexin/Hypocretin receptor type 1 (Homo sapiens, UniProt O43613); assay: Agonist activity at OX1R (unknown origin); format: functional
T1 sequence (O43613 whole entry): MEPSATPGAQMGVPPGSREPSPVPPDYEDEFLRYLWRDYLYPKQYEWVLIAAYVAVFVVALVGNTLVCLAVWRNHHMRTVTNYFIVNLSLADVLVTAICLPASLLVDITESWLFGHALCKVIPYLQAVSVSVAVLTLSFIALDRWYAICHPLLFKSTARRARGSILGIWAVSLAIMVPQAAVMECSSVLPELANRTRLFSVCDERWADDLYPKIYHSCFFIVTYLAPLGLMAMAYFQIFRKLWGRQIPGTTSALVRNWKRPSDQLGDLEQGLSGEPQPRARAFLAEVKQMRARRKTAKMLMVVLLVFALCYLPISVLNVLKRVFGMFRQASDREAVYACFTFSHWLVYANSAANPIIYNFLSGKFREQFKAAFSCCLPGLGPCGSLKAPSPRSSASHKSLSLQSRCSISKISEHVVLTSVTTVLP

[2] = target: T2, Orexin/Hypocretin receptor type 1 (Homo sapiens) (UniProt O43613); assay: Agonist activity at OX1R (unknown origin) assessed as maximum efficacy at 10 uM relative to control; format: functional
T2 sequence (whole entry): T1 sequence (O43613 whole entry)

Orexin receptor type 2 = target: T3, Orexin receptor type 2 (Homo sapiens, UniProt O43614); assay: Agonist activity at OX2R (unknown origin); format: functional
T3 sequence (O43614 whole entry): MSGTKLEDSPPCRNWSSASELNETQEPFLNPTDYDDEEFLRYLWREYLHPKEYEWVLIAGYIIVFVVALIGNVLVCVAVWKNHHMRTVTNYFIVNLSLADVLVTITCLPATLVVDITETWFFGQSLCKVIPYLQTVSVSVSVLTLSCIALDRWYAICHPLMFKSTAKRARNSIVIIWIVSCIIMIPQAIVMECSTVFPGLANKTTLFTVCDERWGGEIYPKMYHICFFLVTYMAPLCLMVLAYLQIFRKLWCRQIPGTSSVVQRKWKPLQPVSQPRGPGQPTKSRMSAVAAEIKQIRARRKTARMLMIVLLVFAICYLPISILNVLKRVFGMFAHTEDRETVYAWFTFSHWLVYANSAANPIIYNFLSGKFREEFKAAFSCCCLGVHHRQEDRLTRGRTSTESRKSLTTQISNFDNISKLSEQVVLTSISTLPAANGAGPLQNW

Homo sapiens = species on record: Homo sapiens; assay: Selectivity index, ratio of EC50 for agonist activity at OX1R (unknown origin) to EC50 for agonist activity at OX2R (unknown origin)
[3] = target: T4, Orexin receptor type 2 (Homo sapiens) (UniProt O43614); assay: Agonist activity at OX2R (unknown origin) assessed as maximum efficacy at 10 uM relative to control; format: functional
T4 sequence (whole entry): T3 sequence (O43614 whole entry)

Row | Compound | EC50 [1] [nM] | Emax ([2]; filed as agonist) [%] | EC50 (Orexin receptor type 2) [nM] | Ratio EC50 (Homo sapiens) | Emax [2] [%] | Emax [3] [%]
1 | COc1ccc(-c2cccc(C(=O)N(C)C)c2)cc1S(=O)(=O)Nc1ccc2c(c1)C(N(C)C(=O)C1CCCCC1)CCC2 (stereo not given) | > 10000 | 44.3 | 837 | – | – | –
2 | COc1cccc(CC(=O)N(C)C2CCCc3ccc(NS(=O)(=O)c4cc(-c5cccc(C(=O)N(C)C)c5)ccc4OC)cc32)c1 (racemic) | 30.7 | – | 1.51 | 20.3 | – | –
3 | CCCCC(=O)N(C)C1CCCc2ccc(NS(=O)(=O)c3cc(-c4cccc(C(=O)N(C)C)c4)ccc3OC)cc21 (stereo not given) | 4180 | – | 1920 | 2.18 | – | –
4 | CCOc1cccc(CC(=O)N(C)C2CCCc3ccc(NS(=O)(=O)c4cc(-c5cccc(C(=O)N(C)C)c5)ccc4OC)cc32)c1 (stereo not given) | 55.3 | – | 2.14 | 25.8 | – | –
5 | COc1ccc(-c2cccc(C(=O)N(C)C)c2)cc1S(=O)(=O)Nc1ccc2c(c1)C(N(C)C(=O)Cc1cccc(N(C)C)c1)CCC2 (stereo not given) | 89 | – | 5.59 | 15.9 | – | –
6 | COc1cccc(CC(=O)N(C)[C@@H]2CCCc3ccc(NS(=O)(=O)c4cc(-c5cccc(C(=O)N(C)C)c5)ccc4OC)cc32)c1 | 13.5 | – | 0.579 | 23.3 | – | –
7 | COc1ccc(-c2cccc(C(=O)N(C)C)c2)cc1S(=O)(=O)Nc1ccc2c(c1)C(N(C)C(=O)Cc1cccc(O)c1)CCC2 (stereo not given) | 713 | – | 57 | 12.5 | – | –
8 | COc1ccc(-c2cccc(C(=O)N(C)C)c2)cc1S(=O)(=O)Nc1ccc2c(c1)C(N(C)C(=O)c1ccccc1)CCC2 (stereo not given) | > 10000 | – | 618 | – | 8.61 | –
9 | COc1cccc(CC(=O)NC2CCCc3ccc(NS(=O)(=O)c4cc(-c5cccc(C(=O)N(C)C)c5)ccc4OC)cc32)c1 (stereo not given) | 229 | – | 26.6 | 8.61 | – | –
10 | COc1ccc(-c2cccc(C(=O)N(C)C)c2)cc1S(=O)(=O)Nc1ccc2c(c1)C(N(C)C(=O)Cc1cccnc1)CCC2 (stereo not given) | 1180 | – | 151 | 7.83 | – | –
11 | COc1ccc(CN(C)C2CCc3ccc(NS(=O)(=O)c4cc(-c5cccc(C(=O)N(C)C)c5)ccc4OC)cc32)cc1 (stereo not given) | 287 | – | 3.27 | 87.8 | – | –
12 | COc1ccc(-c2cccc(C(=O)N(C)C)c2)cc1S(=O)(=O)Nc1ccc2c(c1)C(N(C)C(=O)Cc1cccc(F)c1)CCC2 (stereo not given) | 86.3 | – | 6.5 | 13.3 | – | –
13 | COC(=O)N1CCC[C@H](NS(C)(=O)=O)[C@@H]1CO[C@H]1CC[C@@H](c2ccccc2)CC1 [DANAVOREXTON] | > 30000 | – | – | – | – | –
14 | CCN(C(=O)Cc1cccc(OC)c1)C1CCCc2ccc(NS(=O)(=O)c3cc(-c4cccc(C(=O)N(C)C)c4)ccc3OC)cc21 (stereo not given) | 356 | – | 19.3 | 18.4 | – | –
15 | COc1cccc(CC(=O)N(C)[C@H]2CCCc3ccc(NS(=O)(=O)c4cc(-c5cccc(C(=O)N(C)C)c5)ccc4OC)cc32)c1 | 1240 | – | 2.69 | 461 | – | –
16 | COc1ccc(-c2cccc(C(=O)N(C)C)c2)cc1S(=O)(=O)Nc1ccc2c(c1)C(N(C)C(=O)Cc1ccccc1)CCC2 (stereo not given) | 112 | – | 10.7 | 10.5 | – | –
17 | COc1cccc(CC(=O)OC2CCCc3ccc(NS(=O)(=O)c4cc(-c5cccc(C(=O)N(C)C)c5)ccc4OC)cc32)c1 (stereo not given) | 5780 | – | 413 | 14 | – | –
18 | COc1ccc(-c2cccc(C(=O)N(C)C)c2)cc1S(=O)(=O)Nc1ccc2c(c1)C(N(C)C(=O)CCc1ccccc1)CCC2 (stereo not given) | 372 | – | 126 | 2.95 | – | –
19 | COc1ccc(CC(=O)N(C)C2CCCc3ccc(NS(=O)(=O)c4cc(-c5cccc(C(=O)N(C)C)c5)ccc4OC)cc32)cc1 (stereo not given) | 120 | – | – | – | – | –
20 | COc1cccc(CC(=O)N(C)c2cccc3ccc(NS(=O)(=O)c4cc(-c5cccc(C(=O)N(C)C)c5)ccc4OC)cc23)c1 | 402 | – | 224 | 1.79 | – | –
21 | COc1cccc(CC(=O)N(CC2CC2)C2CCCc3ccc(NS(=O)(=O)c4cc(-c5cccc(C(=O)N(C)C)c5)ccc4OC)cc32)c1 (stereo not given) | > 10000 | – | 78.1 | – | 18.7 | –
22 | COc1ccc(-c2cccc(C(=O)N(C)C)c2)cc1S(=O)(=O)Nc1ccc2c(c1)C(N(C)C(=O)Nc1ccccc1)CCC2 (stereo not given) | 3250 | – | – | – | – | –
23 | CCCN(C(=O)Cc1cccc(OC)c1)C1CCCc2ccc(NS(=O)(=O)c3cc(-c4cccc(C(=O)N(C)C)c4)ccc3OC)cc21 (stereo not given) | 3920 | – | 43.7 | 89.6 | – | –
24 | COc1ccccc1CC(=O)N(C)C1CCCc2ccc(NS(=O)(=O)c3cc(-c4cccc(C(=O)N(C)C)c4)ccc3OC)cc21 (stereo not given) | 92.2 | – | 3.59 | 25.7 | – | –
25 | COc1cccc(CC(=O)N(C)c2cccc3c2CC(NS(=O)(=O)c2cc(-c4cccc(C(=O)N(C)C)c4)ccc2OC)CC3)c1 (stereo not given) | 5490 | – | > 10000 | – | – | 39.9
26 | H-MTLIGAAHNGSAQLLRQLRGQLGPPGSR-NH2 | – | – | – | 41.7 | – | –
